# Test results from patent publication US8519128B2, “Pyripyropene derivatives having an ACAT2-inhibiting activity” (The Kitasato Institute, priority 2007, dated 2013).
# Read-outs that look alike come from different tables or passages of the source.
# Key:
# ACAT 2 = biological target: T1, ACAT 2 (Mus musculus, UniProt O88908); experiment: ACAT-inhibiting activity, mouse liver microsome membrane fraction, [14C]oleoyl-CoA; format: biochemical; details: for Specific activity: (inhibitory activity of test compound)/(inhibitory activity of pyripyropene A): relative to pyripyropene A
# T1 construct: The source of ACAT 2 enzyme used was a membrane fraction derived from mouse liver microsome; from tissue; host or cells: mouse liver (microsome fraction)
# T1 sequence (O88908 1-525): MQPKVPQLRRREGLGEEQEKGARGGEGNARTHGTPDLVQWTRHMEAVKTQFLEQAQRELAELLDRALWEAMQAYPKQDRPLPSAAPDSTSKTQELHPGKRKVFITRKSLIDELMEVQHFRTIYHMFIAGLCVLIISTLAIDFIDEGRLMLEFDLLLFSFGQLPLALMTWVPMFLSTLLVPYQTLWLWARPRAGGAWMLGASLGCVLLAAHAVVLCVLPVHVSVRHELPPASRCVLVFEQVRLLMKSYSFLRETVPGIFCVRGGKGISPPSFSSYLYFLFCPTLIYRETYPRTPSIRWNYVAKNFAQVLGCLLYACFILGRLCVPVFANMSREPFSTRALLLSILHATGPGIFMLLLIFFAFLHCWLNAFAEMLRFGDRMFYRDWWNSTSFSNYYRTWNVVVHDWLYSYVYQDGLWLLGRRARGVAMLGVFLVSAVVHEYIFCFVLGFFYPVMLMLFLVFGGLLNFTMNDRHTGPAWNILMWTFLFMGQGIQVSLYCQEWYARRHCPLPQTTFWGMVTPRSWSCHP
# Summary of the method: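 Enzyme source: mouse liver microsomal membrane fraction (100000×g pellet) at 5 mg/ml protein in 50 mM Tris-HCl pH 7.8, 1 mM EDTA, 1 mM PMSF; substrate [14C]oleoyl-CoA. Chloroform-extracted lipids resolved by silica TLC in hexane/diethyl ether/acetic acid (70:30:1).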
# [1] = tested on: apolipoprotein E-deficient mice; experiment: Total plasma cholesterol after 14 days of daily oral administration, high-fat feed; format: in vivo; details: for total plasma cholesterol at day 14 (% of day 0): day 0 taken as 100%, control 212.2%; for suppression of the increase in total plasma cholesterol compared with pyripyropene A: oral administration, apolipoprotein E-deficient mice
# Method: Ten-week old apolipoprotein E-deficient mice (males, purchased from Jackson Laboratories) were kept under cycles of artificial light (day) for 12 hours and dark (night) for 12 hours by appropriately feeding a standard high-fat feed (D12079B, Research Diet). Before starting a test for each test compound, 100 μL of blood were collected from the caudal vein of each animal to measure the total cholesterol concentration in plasma using a commercially available kit (Determiner TC 555, Kyowa Medex). […] The test compound was orally administered daily at the start of the artificial light cycle of each day.
# Blood was collected at the start of the artificial light cycle on day 14 of administration of the test compound to measure the total plasma cholesterol. The total plasma cholesterol before administration of the test compound (on day 0) was taken as 100%, and the percent increase in total plasma cholesterol on day 14 after administration of the test compound started was calculated.
# [2] = mouse liver microsome, 5 minutes at 37° C.
IC50 (ACAT 2; [2]) [µM],Specific activity: (inhibitory activity of test compound)/(inhibitory activity of pyripyropene A) (ACAT 2),SMILES,total plasma cholesterol at day 14 (% of day 0) ([1]; 1 mg/kg oral daily) [%],total plasma cholesterol at day 14 (% of day 0) ([1]; 10 mg/kg oral daily) [%],total plasma cholesterol at day 14 (% of day 0) ([1]; 50 mg/kg oral daily) [%],suppression of the increase in total plasma cholesterol compared with pyripyropene A [1],IC50 (ACAT 2) [µM]
0.01 to 0.1,+++ (50 > specific activity > 10),"CC(=O)OCC1(C)C2C[C@H](OC(=O)c3ccc(C#N)cc3)[C@@]3(C)Oc4cc(-c5cccnc5)oc(=O)c4[C@H](O)C3[C@@]2(C)CC[C@@H]1OC(C)=O (some centres unmarked) [PRD 017, 7-p-cyanobenzoyl-7-deacetylpyripyropene A]",161.6,149.7,132.5,to a greater degree than did pyripyropene A,
0.01 to 0.1,+ (5 > specific activity > 1),"CC12COC(c3ccccc3)O[C@H]1CC[C@@]1(C)C2C[C@H](OC(=O)c2ccc(C#N)cc2)[C@@]2(C)Oc3cc(-c4cccnc4)oc(=O)c3[C@H](O)C12 (some centres unmarked) [PRD 041, 1,11-O-benzylidene-7-O-p-cyanobenzoyl-1,7,11-trideacetylpyripyropene A]",102.4,88.2,101.1,to a greater degree than did pyripyropene A,
0.01 to 0.1,+++ (50 > specific activity > 10),"CC(C)C(=O)OCC1(C)C2C[C@H](OC(=O)c3ccc(C#N)cc3)[C@@]3(C)Oc4cc(-c5cccnc5)oc(=O)c4[C@H](O)C3[C@@]2(C)CC[C@@H]1OC(=O)C(C)C (some centres unmarked) [PRD 056, 7-O-p-cyanobenzoyl-1,11-di-(O-isobutyryl)-1,7,11-trideacetylpyripyropene A]",148.0,114.8,86.1,to a greater degree than did pyripyropene A,
0.1 to 1,+ (5 > specific activity > 1),"CC(=O)OCC1(C)C2C[C@H](OC(=O)CCN3CCCCC3)[C@@]3(C)Oc4cc(-c5cccnc5)oc(=O)c4[C@H](O)C3[C@@]2(C)CC[C@@H]1OC(C)=O (some centres unmarked) [PRD 095, 7-O-3-(pyperidin-1-yl)propionyl-7-deacetylpyripyropene A]",,,,,
0.1 to 1,+ (5 > specific activity > 1),"CC(=O)OCC1(C)C2C[C@H](OC(=O)c3cnccn3)[C@@]3(C)Oc4cc(-c5cccnc5)oc(=O)c4[C@H](O)C3[C@@]2(C)CC[C@@H]1OC(C)=O (some centres unmarked) [PRD 096, 7-O-pyrazinecarboxyl-7-deacetylpyripyropene A]",,,,,
0.1 to 1,+ (5 > specific activity > 1),"CC(=O)OCC1(C)C2C[C@H](OC(=O)c3ccc(=O)oc3)[C@@]3(C)Oc4cc(-c5cccnc5)oc(=O)c4[C@H](O)C3[C@@]2(C)CC[C@@H]1OC(C)=O (some centres unmarked) [PRD 098, 7-O-2-pyrone-5-carboxyl-7-deacetylpyripyropene A]",,,,,
< 0.01,+++ (50 > specific activity > 10),"CC(=O)OCC1(C)C2C[C@H](OC(=O)CCc3ccccc3)[C@@]3(C)Oc4cc(-c5cccnc5)oc(=O)c4[C@H](O)C3[C@@]2(C)CC[C@@H]1OC(C)=O (some centres unmarked) [PRD 100, 7-O-3-phenylpropionyl-7-deacetylpyripyropene A]",,,,,
0.1 to 1,+ (5 > specific activity > 1),"CC(=O)OCC1(C)C2C[C@H](OC(=O)Cc3nnn[nH]3)[C@@]3(C)Oc4cc(-c5cccnc5)oc(=O)c4[C@H](O)C3[C@@]2(C)CC[C@@H]1OC(C)=O (some centres unmarked) [PRD 102, 7-O-(1H-tetrazol-5-yl)acetyl-7-deacetylpyripyropene A]",,,,,
< 0.01,+++ (50 > specific activity > 10),"COc1ccc(CCCC(=O)O[C@H]2CC3C(C)(COC(C)=O)[C@@H](OC(C)=O)CC[C@]3(C)C3[C@@H](O)c4c(cc(-c5cccnc5)oc4=O)O[C@@]32C)cc1 (some centres unmarked) [PRD 103, 7-O-4-(4-methoxyphenyl)butytyl-7-deacetylpyripyropene A]",,,,,
0.1 to 1,+ (5 > specific activity > 1),"CC(=O)OCC1(C)C2C[C@H](OC(=O)CCN3CCN(C)CC3)[C@@]3(C)Oc4cc(-c5cccnc5)oc(=O)c4[C@H](O)C3[C@@]2(C)CC[C@@H]1OC(C)=O (some centres unmarked) [PRD 104, 7-O-3-(4-methylpiperazin-1-yl)propionyl-7-deacetylpyripyropene A]",,,,,
< 0.01,+++ (50 > specific activity > 10),"CC(=O)OCC1(C)C2C[C@H](OC(=O)c3ccc(Br)c(F)c3)[C@@]3(C)Oc4cc(-c5cccnc5)oc(=O)c4[C@H](O)C3[C@@]2(C)CC[C@@H]1OC(C)=O (some centres unmarked) [PRD 105, 7-O-p-bromo-m-fluorobenzoyl-7-deacetylpyripyropene A]",,,,,
0.1 to 1,+ (5 > specific activity > 1),"CC(=O)OCC1(C)C2C[C@H](OC(=O)CO)[C@@]3(C)Oc4cc(-c5cccnc5)oc(=O)c4[C@H](O)C3[C@@]2(C)CC[C@@H]1OC(C)=O (some centres unmarked) [PRD 107, 7-O-hydroxyacetyl-7-deacetylpyripyropene A]",,,,,
0.1 to 1,+ (5 > specific activity > 1),"COCCOCOCC(=O)O[C@H]1CC2C(C)(COC(C)=O)[C@@H](OC(C)=O)CC[C@]2(C)C2[C@@H](O)c3c(cc(-c4cccnc4)oc3=O)O[C@@]21C (some centres unmarked) [PRD 108, 7-O-methoxyethoxymethoxyacetyl-7-deacetylpyripyropene A]",,,,,
< 0.01,+++ (50 > specific activity > 10),"CC(=O)OCC1(C)C2C[C@H](OC(=O)c3ccc(Br)cc3F)[C@@]3(C)Oc4cc(-c5cccnc5)oc(=O)c4[C@H](O)C3[C@@]2(C)CC[C@@H]1OC(C)=O (some centres unmarked) [PRD 109, 7-O-p-bromo-o-fluorobenzoyl-7-deacetylpyripyropene A]",,,,,
0.1 to 1,+ (5 > specific activity > 1),CC(=O)OCC1(C)C(OC(C)=O)CC[C@@]2(C)C1C[C@H](OC(=O)c1ccc(C(N)=O)cc1)[C@@]1(C)Oc3cc(-c4cccnc4)oc(=O)c3[C@H](O)C21 (some centres unmarked) [PRD 111],,,,,
,+++ (50 > specific activity > 10),"CC(=O)OCC1(C)C2C[C@H](OC(=O)c3ccc(C#N)c(F)c3)[C@@]3(C)Oc4cc(-c5cccnc5)oc(=O)c4[C@H](O)C3[C@@]2(C)CC[C@@H]1OC(C)=O (some centres unmarked) [PRD 112, 7-O-p-cyano-m-fluorobenzoyl-7-deacetylpyripyropene A]",,,,,
,,"CC(=O)OCC1(C)C(OC(C)=O)CCC2(C)C1CC(OC(C)=O)C1(C)Oc3cc(-c4cccnc4)oc(=O)c3C(O)C21 (centres unmarked) [Pyripyropene A, reference compound]",,177.3,174.0,,

SMILES,IC50 (ACAT 2; [2]) [µM],Specific activity: (inhibitory activity of test compound)/(inhibitory activity of pyripyropene A) (ACAT 2),total plasma cholesterol at day 14 (% of day 0) ([1]; 1 mg/kg oral daily) [%],total plasma cholesterol at day 14 (% of day 0) ([1]; 10 mg/kg oral daily) [%],total plasma cholesterol at day 14 (% of day 0) ([1]; 50 mg/kg oral daily) [%],suppression of the increase in total plasma cholesterol compared with pyripyropene A [1],IC50 (ACAT 2) [µM]
"COCOCC(=O)O[C@H]1CC2C(C)(COC(C)=O)[C@@H](OC(C)=O)CC[C@]2(C)C2[C@@H](O)c3c(cc(-c4cccnc4)oc3=O)O[C@@]21C (some centres unmarked) [PRD 106, 7-O-methoxymethoxyacetyl-7-deacetylpyripyropene A]",,+ (5 > specific activity > 1),,,,,0.1 to 1
